# Reference: patent US7435823B2, “Compounds and methods of use” (Amgen Inc., priority 2004, dated 2008)
# Like-named read-outs stand apart in the source and are kept apart here.
# Legend:
# [1] = tested on: Human Umbilical Vein Endothelial cells; experiment: HUVEC proliferation assay, VEGF-stimulated; format: cell-based; details: 72 h, read-out: inhibition of VEGF-stimulated HUVEC proliferation
# Experimental: HUVEC Proliferation Assay
# Human Umbilical Vein Endothelial cells are purchased from Clonetics, Inc., as cryopreserved cells harvested from a pool of donors. These cells, at passage 1, are thawed and expanded in EBM-2 complete medium, until passage 2 or 3. The cells are trypsinized, washed in DMEM+10% FBS+antibiotics, and spun at 1000 rpm for 10 min. Prior to centrifugation of the cells, a small amount is collected for a cell count. After centrifugation, the medium is discarded, and the cells are resuspended in the appropriate volume of DMEM+10% FBS+antibiotics to achieve a concentration of 3×10^5 cells/mL. Another cell count is performed to confirm the cell concentration. The cells are diluted to 3×10^4 cells/mL in DMEM+10% FBS+antibiotics, and 100 μL of cells are added to a 96-well plate. The cells are incubated at 37° C. for 22 h.
# Prior to the completion of the incubation period, compound dilutions are prepared. Five-point, five-fold serial dilutions are prepared in DMSO, at concentrations 400-fold greater than the final concentrations desired. 2.5 μL of each compound dilution are diluted further in a total of 1 mL DMEM+10% FBS+antibiotics (400× dilution). Medium containing 0.25% DMSO is also prepared for the 0 μM compound sample. At the 22 h timepoint, the medium is removed from the cells, and 100 μL of each compound dilution is added. The cells are incubated at 37° C. for 2-3 h.
# During the compound pre-incubation period, the growth factors are diluted to the appropriate concentrations. Solutions of DMEM+10% FBS+antibiotics, containing either VEGF or bFGF at the following concentrations: 50, 10, 2, 0.4, 0.08, and 0 ng/mL are prepared. For the compound-treated cells, solutions of VEGF at 550 ng/mL or bFGF at 220 ng/mL for 50 ng/mL or 20 ng/mL final concentrations, respectively, are prepared since 10 μL of each will be added to the cells (110 μL final volume). At the appropriate time after adding the compounds, the growth factors are added. VEGF is added to one set of plates, while bFGF is added to another set of plates. For the growth factor control curves, the media on wells B4-G6 of plates 1 and 2 are replaced with media containing VEGF or bFGF at the varying concentrations (50-0 ng/mL). The cells are incubated at 37° C. for an additional 72 h.
# At the completion of the 72 h incubation period, the medium is removed, and the cells are washed twice with PBS. After the second wash with PBS, the plates are tapped gently to remove excess PBS, and the cells are placed at −70° C. for at least 30 min. The cells are thawed and analyzed using the CyQuant fluorescent dye (Molecular Probes C-7026), following the manufacturer's recommendations. The plates are read on a Victor/Wallac 1420 workstation at 485 nm/530 nm (excitation/emission). Raw data are collected and analyzed using a 4-parameter fit equation in XLFit. IC50 values are then determined.
# [2] = tested on: Human peripheral blood lymphocytes; experiment: Human mixed lymphocyte reaction (huMLR); format: cell-based; details: 3H-thymidine incorporation, 6 days, read-out: IC50, inhibition of T-cell activation
# Experimental: Human Mixed Lymphocyte Reaction (huMLR):
# The purpose of this assay is to test the potency of T cell activation inhibitors in an in vitro model of allogeneic T cell stimulation. Human peripheral blood lymphocytes (hPBL; 2×10^5/well) are incubated with mitomycin C-treated B lymphoblastoid cells (JY cell line; 1×10^5/well) as allogeneic stimulators in the presence or absence of dilutions of potential inhibitor compound in 96-well round-bottom tissue culture plates. These cultures are incubated at 37° C. in 5% CO2 for 6 days total. The proliferative response of the hPBL is measured by ^3H-thymidine incorporation overnight between days 5 and 6 after initiation of culture. Cells are harvested onto glass fiber filters and ^3H-thymidine incorporation into DNA is analyzed by liquid scintillation counter.
IC50 [2] [nM],Structure (SMILES),other results
–,"COc1cc2nccc(Oc3ccc4c(NC(=O)c5ccc(Cl)cc5)cccc4c3)c2cc1OC [Example 121, N-[6-(6,7-Dimethoxy-quinolin-4-yloxy)-naphthalen-1-yl]-4-chloro-benzamide]",IC50 ([1]; VEGF-stimulated): < 500 nM
–,"COc1cc2nccc(Oc3ccc4c(C(=O)Nc5ccc(Cl)c(C(F)(F)F)c5)cccc4c3)c2cc1OC [Example 117, 6-(6,7-dimethoxy-quinolin-4-yloxy)-naphthalene-1-carboxylix acid (4-chloro-3-trifluoromethyl-phenyl)-amide]",IC50 ([1]; VEGF-stimulated): < 500 nM
< 100,"COc1cc2nccc(Oc3ccc4c(C(=O)Nc5cc(C(F)(F)F)ccn5)cccc4c3)c2cc1OC [Example 657, 6-((6,7-bis(methoxy)-4-quinolinyl)oxy)-N-(4-(trifluoromethyl)-2-pyridinyl)-1-naphthalenecarboxamide]",–
–,"COc1cc2nccc(Oc3ccc4c(C(=O)Nc5cccc(C(F)(F)F)c5)cccc4c3)c2cc1OC [Example 116, 6-(6,7-dimethoxy-quinolin-4-yloxy)-naphthalene-1-carboxylix acid (3-trifluoromethyl-phenyl)-amide]",IC50 ([1]; VEGF-stimulated): < 500 nM
< 100,"COc1cc2nccc(Oc3ccc4c(C(=O)Nc5cc(C(C)(C)C)on5)cccc4c3F)c2cc1OC [Example 467, 6-((6,7-bis(methoxy)-4-quinolinyl)oxy)-N-(5-(1,1-dimethylethyl)-3-isoxazolyl)-5-fluoro-1-naphthalenecarboxamide]",–
–,"COc1cc2nccc(Oc3ccc4c(C(=O)Nc5ccc(C(F)(F)F)cc5)cccc4c3)c2cc1OC [Example 115, 6-(6,7-dimethoxy-quinolin-4-yloxy)-naphthalene-1-carboxylix acid (4-trifluoromethyl-phenyl)-amide]",IC50 ([1]; VEGF-stimulated): < 500 nM
< 100,"COc1cc2nccc(Oc3ccc4c(C(=O)Nc5cc(C(C)(C)C)[nH]n5)cccc4c3)c2cc1OC [Example 589, 6-((6,7-bis(methoxy)-4-quinolinyl)oxy)-N-(5-(1,1-dimethylethyl)-1H-pyrazol-3-yl)-1-naphthalenecarboxamide]",–
–,"COc1cc2nccc(Oc3ccc4c(C(=O)Nc5ccc(Cl)cc5)cccc4c3)c2cc1OC [Example 114, 6-(6,7-Dimethoxy-quinolin-4-yloxy)-naphthalene-1-carboxylic acid(4-chloro-phenyl)-amide]",IC50 [1]: < 500 nM
< 100,"COc1cc2c(Oc3ccc4c(C(=O)Nc5cc(C(C)(C)C)on5)cccc4c3F)ccnc2cc1OCCCN1CCOCC1 [Example 611, N-(5-(1,1-dimethylethyl)-3-isoxazolyl)-5-fluoro-6-((6-(methoxy)-7-((3-(4-morpholinyl)propyl)oxy)-4-quinolinyl)oxy)-1-naphthalenecarboxamide]",–
< 100,"COc1cc2c(Oc3ccc4c(C(=O)Nc5cc(C(C)(C)C)on5)cccc4c3)ncnc2cc1OCCCN1CCCCC1 [Example 732, N-(5-(1,1-dimethylethyl)-3-isoxazolyl)-6-((6-(methoxy)-7-((3-(1-piperidinyl)propyl)oxy)-4-quinazolinyl)oxy)-1-naphthalenecarboxamide]",–
–,CCNC(=O)Nc1ccc2c(F)c(Oc3ccnc4cc(OCCCN5CCOCC5)c(OC)cc34)ccc2c1 [Example 111],melting point: 193.5 to 196.4 °C
< 100,"COc1cc2nccc(Oc3ccc4c(C(=O)Nc5cc(C(C)(C)C)on5)cccc4c3)c2cc1OC [Example 583, 6-((6,7-bis(methoxy)-4-quinolinyl)oxy)-N-(5-(1,1-dimethylethyl)-3-isoxazolyl)-1-naphthalenecarboxamide]",–
< 100,"COc1cc2c(Oc3ccc4c(C(=O)Nc5cc(C(C)(C)C)[nH]n5)cccc4c3)ccnc2cc1OCCCN1CCOCC1 [Example 325, N-(5-(1,1-dimethylethyl)-1H-pyrazol-3-yl)-6-((6-(methoxy)-7-((3-(4-morpholinyl)propyl)oxy)-4-quinolinyl)oxy)-1-naphthalenecarboxamide]",–
< 100,"COc1ccc(C(C)(C)C)cc1NC(=O)c1cccc2cc(Oc3ccnc4cc(OCCCN5CCOCC5)c(OC)cc34)ccc12 [Example 342, N-(5-(1,1-dimethylethyl)-2-(methoxy)phenyl)-6-((6-(methoxy)-7-((3-(4-morpholinyl)propyl)oxy)-4-quinolinyl)oxy)-1-naphthalenecarboxamide]",–
< 100,"COc1cc2c(Oc3ccc4c(C(=O)Nc5cccc(C(F)(F)F)c5)cccc4c3)ccnc2cc1OCCCN1CCOCC1 [Example 314, 6-((6-(methoxy)-7-((3-(4-morpholinyl)propyl)oxy)-4-quinolinyl)oxy)-N-(3-(trifluoromethyl)phenyl)-1-naphthalenecarboxamide]",–
< 100,"COc1cc2nccc(Oc3ccc4c(C(=O)Nc5cc(C(C)(C)C)on5)ccc(C)c4c3)c2cc1OC [Example 541, 6-((6,7-bis(methoxy)-4-quinolinyl)oxy)-N-(5-(1,1-dimethylethyl)-3-isoxazolyl)-4-methyl-1-naphthalenecarboxamide]",–
< 100,"COc1cc2nccc(Oc3ccc4c(C(=O)Nc5ncc(C)s5)cccc4c3)c2cc1OC [Example 289, 6-((6,7-bis(methoxy)-4-quinolinyl)oxy)-N-(5-methyl-1,3-thiazol-2-yl)-1-naphthalenecarboxamide]",–
< 100,COc1cc2c(Oc3ccc4c(C(=O)Nc5ccc(Cl)cc5)cccc4c3F)ccnc2cc1OCCCN1CCOCC1 [Example 816],–
–,"COc1cc2nccc(Oc3ccc4c(NC(=O)c5ccccc5F)cccc4c3)c2cc1OC [Example 120, N-[6-(6,7-dimethoxy-quinolin-4-yloxy)-naphthalen-1-yl]-2-fluoro-benzamide]",IC50 ([1]; VEGF-stimulated): < 500 nM
